{"source": "patent US9416181B2", "about": "“Compositions for cell culture and methods of using the same” (AbbVie Inc., priority 2013, dated 2016)", "type_in_all_cases": "cell-based, Chinese Hamster", "key": {"[1]": {"test_system": "Cell Line 1 (CHO) expressing Antibody 1", "assay": "Aggregate content (SEC) of Antibody 1, Cell Line 1 shake flask fed-batch culture", "conditions": "shaker", "description": "(§1) A recombinant Chinese Hamster Ovary (CHO) cell line (Cell Line 1) expressing a humanized monoclonal antibody (Antibody 1) was evaluated in 2 different cultures vessels (shaker flasks and 3 L laboratory-scale bioreactors). The cell line was of CHO DUX-B11 origin based on a DHFR (dihydrofolate reductase) expression system and cultured in a chemically defined basal media, and fed periodically with a chemically-defined feed media (CDFM). The media utilized throughout all of the experiments were chemically-defined, and both animal-component free, and protein-free. Each of the respective media were supplemented as needed with selected bioflavonoids to evaluate for their potential impact on the resulting acidic species profile. In preparation of the cultures, the cell lines were serially expanded through separate seed train inoculums to generate enough cells for inoculation. Process conditions utilized during the cultures were slightly different depending on the culture scale, but similar within each scale to the respective non-bioflavonoid supplemented control conditions. All bioflavonoids utilized were purchased from Sigma-Aldrich (St. Louis, Mo.).\nProtein A purified antibody samples from Cell Line 1 were diluted when necessary to 0.5-5 mg/mL in 1×PBS, and measured on a TSKgel G3000SWXL column (Tosoh Bioscience, South San Francisco, Calif.) using an isocratic gradient on an HPLC system with detection at 280 nm. High molecular weight (HMW), monomer, and low molecular weight (LMW) species were assigned and subsequently quantitated based on the chromatographic profile.\nIn this Example, EGCG was added into the feed (cell culture medium) at the concentration range of 5 mg/L (low), 20 mg/L (mid) and 50 mg/L (high) in a shaker experiment to determine the impact of EGCG on product quality of a humanized monoclonal antibody (Antibody 1). Detailed cell culture conditions are as described in Table 1."}, "[2]": {"test_system": "Cell Line 1 (CHO) expressing Antibody 1", "assay": "Acidic species variants (WCX-10) of Antibody 1, Cell Line 1 3 L bioreactor fed-batch culture", "conditions": "for drop in absolute acidic species percentage points: 3 L bioreactor; for drop in absolute acidic species percentage points / relative total AR (ratio to Day 8 value of unsupplemented control): Day 15 harvest", "description": "as §1\nSamples were analyzed using an HPLC system equipped with a ProPac WCX-10 analytical column (Thermo Scientific, Sunnyvale, Calif.). Approximately 100 μg of sample was loaded in 6% Buffer B (10 mM sodium phosphate, 500 mM NaCl, pH 5.5) and 94% Buffer A (10 mM sodium phosphate, pH 7.5). The column was run at a flow rate of 1.0 mL/min. The protein was eluted from the column by increasing the buffer B composition from 6% to 16% over 20 minutes. The protein peaks were measured using UV absorbance at 280 nm as the peaks eluted from the column. The column was regenerated using 100% buffer B followed be a re-equilibration period using initial condition before the injection of the next sample. Peaks eluting before the main peak were termed “acidic peaks” and peaks eluting after the main peak were called “basic peaks” (FIG. 2).\nIn the next experiment, lab-scale bioreactors were used to (1) confirm the shaker experiment results and (2) to determine whether higher concentration range of EGCG is suitable for supplementing into cell culture. EGCG was added to the feed of the batch culture at the concentrations of 20 mg/L (mid), 50 mg/L (high) and 125 mg/L (high+) and 250 mg/L (high++) in this reactor experiment.\nCell Line 1 was evaluated in larger-scale feed batch cultures with the feed media supplemented with various bioflavonoids. […] By contrast, cell growth performance was slightly different for the 0.1 g/L EGCG supplemented condition. […] However, the cell viability remained high at 0.1 g/L EGCG. All cultures were successfully harvested on Day 15 post-inoculation. The harvest titers measured from the evaluated cultures were similar.\nCell Line 1 was also evaluated in laboratory-scale fedbatch cultures with the feed media supplemented with various bioflavonoids. […] Cell growth performance was slightly different however with the 0.1 g/L EGCG supplemented condition. […] All cultures were able to be successfully harvested on Day 15 post-inoculation."}, "[3]": {"test_system": "Cell Line 2 (CHO) expressing Antibody 2", "assay": "Acidic species variants (WCX-10) of Antibody 2, Cell Line 2 shake flask culture", "conditions": "0.05 and 0.1 g/L; shaker", "description": "(§2) Four different recombinant Chinese Hamster Ovary (CHO) cell lines expressing four different recombinant glycoproteins were evaluated in either shaker flask culture, or 3 L laboratory scale bioreactors. Cell Line 1 was genetically engineered to express Antibody 1, Cell Line 2 was genetically engineered to express Antibody 2, Cell Line 3 was genetically engineered to express dual variable domain immunoglobulin 1 (DVD1) and Cell Line 4 was genetically engineered to express dual variable domain immunoglobulin 2 (DVD2).\nCharge Heterogeneity via Weak Cation Exchange Chromatography-Samples were analyzed using an HPLC system equipped with a ProPac WCX-10 analytical column (Thermo Scientific, Sunnyvale, Calif.). Approximately 100 μg of sample was loaded in 6% Buffer B (10 mM sodium phosphate, 500 mM NaCl, pH 5.5) and 94% Buffer A (10 mM sodium phosphate, pH 7.5). The column was run at a flow rate of 1.0 mL/min. […] The protein peaks were measured using UV absorbance at 280 nm as the peaks eluted from the column. […]\nTo further evaluate the impact of EGCG on acidic region variants, Antibody 2 and dual variable domain immunoglobulin 1 (DVD1) were examined. Antibody 2 was evaluated in a set of shaker and lab-scale bioreactor experiments with two feed amounts (100% and 50%) as unsupplemented control conditions. […]"}, "[4]": {"test_system": "Cell Line 3 (CHO) expressing DVD1", "assay": "Acidic species variants (WCX-10) of DVD1, Cell Line 3 shake flask culture", "conditions": "shaker", "description": "as §2\nCharge Heterogeneity via Weak Cation Exchange Chromatography-Samples were analyzed using an HPLC system equipped with a ProPac WCX-10 analytical column (Thermo Scientific, Sunnyvale, Calif.). Approximately 100 μg of sample was loaded in 6% Buffer B (10 mM sodium phosphate, 500 mM NaCl, pH 5.5) and 94% Buffer A (10 mM sodium phosphate, pH 7.5). The column was run at a flow rate of 1.0 mL/min. The protein was eluted from the column by increasing the buffer B composition from 6% to 16% over 20 minutes. The protein peaks were measured using UV absorbance at 280 nm as the peaks eluted from the column. The column was regenerated using 100% buffer B followed be a re-equilibration period using initial condition before the injection of the next sample. Peaks eluting before the main peak were termed ‘acidic peaks’ and peaks eluting after the main peak were called ‘basic peaks’ (FIG. 2).\nTo assess the impact of EGCG on acidic region variants on recombinant proteins, dual variable domain immunoglobulin 1 (DVD1) was examined. EGCG was added at the concentrations of 0.02 g/L, 0.05 g/L, 0.1 g/L and 0.2 g/L into the feed in a shaker experiment (See Table 2). […] At the concentration of 0.2 g/L, EGCG led to 15% viability decrease and 28% productivity loss compared to control condition. Upon measurement of the acidic species variants, EGCG supplement reduced the total acidic species in a dose-dependent manner. At the concentrations of 0.02 g/L, 0.05 g/L, 0.1 g/L and 0.2 g/L respectively, EGCG reduced the total acidic species content 5%, 10%, 17% and 22% relatively compared to the unsupplemented control (FIG. 13D)."}, "[5]": {"conditions": "50, 125 and 250 mg/L in feed, bioreactor"}}}
{"smiles": "O=C(O[C@@H]1Cc2c(O)cc(O)cc2O[C@@H]1c1cc(O)c(O)c(O)c1)c1cc(O)c(O)c(O)c1", "note": "[EGCG, epigallocatechin gallate]", "values": [{"measurement": "reduction of aggregation content, relative value", "setting": "[1]; 5 mg/L in feed", "value": 9, "unit": "%"}, {"measurement": "reduction of aggregation content, relative value", "setting": "[1]; 20 mg/L in feed", "value": 23, "unit": "%"}, {"measurement": "reduction of aggregation content, relative value", "setting": "[1]; 50 mg/L in feed", "value": 44, "unit": "%"}, {"measurement": "drop in absolute acidic species percentage points", "setting": "[2]; 0.05 g/L in CDFM", "value": 4, "unit": "%"}, {"measurement": "relative total AR (ratio to Day 8 value of unsupplemented control)", "setting": "[2]; 0.05 g/L in CDFM, bioreactor", "value": 1.10}, {"measurement": "drop in absolute acidic species percentage points", "setting": "[2]; 0.1 g/L in CDFM", "value": 10, "unit": "%"}, {"measurement": "relative total AR (ratio to Day 8 value of unsupplemented control)", "setting": "[2]; 0.1 g/L in CDFM, bioreactor", "value": 0.69}, {"measurement": "reduction of total acidic species content, absolute value", "setting": "[2]; [5]", "value": "at least 2%"}, {"measurement": "reduction of total acidic species content, relative value", "setting": "[2]; [5]", "value": "≥ 16", "unit": "%"}, {"measurement": "relative reduction of total acidic species content vs unsupplemented control", "setting": "[3]", "value": "21%-45%"}, {"measurement": "relative reduction of total acidic species content vs unsupplemented control", "setting": "[4]; 0.02 g/L in feed", "value": 5, "unit": "%"}, {"measurement": "relative reduction of total acidic species content vs unsupplemented control", "setting": "[4]; 0.05 g/L in feed", "value": 10, "unit": "%"}, {"measurement": "relative reduction of total acidic species content vs unsupplemented control", "setting": "[4]; 0.1 g/L in feed", "value": 17, "unit": "%"}, {"measurement": "relative reduction of total acidic species content vs unsupplemented control", "setting": "[4]; 0.2 g/L in feed", "value": 22, "unit": "%"}]}
